Results taken from US12655189B2, “DOTA binding chimeric antigen receptor for cellular therapy” (THE TRUSTEES OF THE UNIVERSITY OF PENNSYLVANIA, priority 2019, dated 2026).

Experiments:
hC8.2.5 DOTA CAR T cells = experiment: IFNγ secretion (ELISA) in response to immobilized DOTA or Y-DOTA; format: cell-based, human; conditions: immobilized ligand
Method: FIGS. 3A-3H illustrate Anti-DOTA Universal Immune Receptor binding and redirected killing. […] DOTA-NHS or Y-DOTA-Sarcosine-Biotin were incubated at various concentrations in a 96-well plate and allowed to passively adhere overnight at 4° C. Plates were washed 2× with PBS and 50,000 immune receptor expressing T cells were added to each well. Plates were incubated at 37° C. and 5% CO2 for 16 hours. Supernatants were harvested and analyzed for IFNγ secretion using a standard IFNγ ELISA kit. […] The average number of DOTA's per antibody was determined using the difference in mass between labeled and unlabeled antibody; in this example there are ˜9.3 DOTAs per antibody.

antigen positive cells = experiment: Target-cell lysis with DOTA-conjugated targeting ligands: linker/metal tuning and blocking (FIGS. 3E, 6B, 9); format: cell-based; conditions: 6 nM DOTA-NHS blocking
Method: To investigate the ability of DOTA-linked antibodies to trigger effector function in CAR T cells, CAR T cells were incubated with varying amounts of the Her2-specific Herceptin-conjugated DOTA antibody for 16 hours (FIG. 3D). Following this incubation, the supernatant was collected and IFNγ production was measured.
Herceptin antibodies were conjugated to DOTA, various metal ions were chelated, and the ability of DOTA CAR T cells to kill their targets was evaluated.

CD20+ cells = experiment: Lysis of CD20+ cells by DOTA CAR; format: cell-based; conditions: SKOV3 cells as antigen negative control
[1] = test system: Ramos (CD20+/EGFR−) cells; experiment: Luciferase lysis assay, Ramos; format: cell-based; conditions: 16 hours, 2.5:1 E:T, average of 1 DOTA per antibody
Method: Cetuximab and Rituximab were conjugated to Bn-DOTA to create targeting ligands with an average of 1 DOTA molecule per antibody, confirmed by MALDI TOF. MDA468 (CD20-/EGFR+) cells and Ramos (CD20+/EGFR−) cells expressing fLuc were incubated for 16 hours with DOTA CAR T cells at a 2.5:1 E:T ratio and targeting ligands at a range of concentrations. Each condition was run in triplicate. Luminescence was measured after co-culture and used to calculate lysis.

[2] = test system: SKOV3 cells transduced with the DOTA CAR; experiment: Cell uptake of radiolabeled probes, DOTA CAR transduced cells; format: cell-based
Method: FIG. 19 is a histogram illustrating [[…]]DOTA-Bn-NH2 and [^90Y]AABD uptake in SKOV3 cells transduced with the DOTA CAR.
FIG. 20 is a graph illustrating [[…]]Rituximab-Bn-DOTA-Y uptake in SKOV3 cells transduced with the DOTA CAR. The cells bind to [^125I]Rituximab-Bn-DOTA-Y rapidly, with maximum uptake at 60 min.
(§1) [^90Y]DOTA-Bn-NH2 and [^90Y]AABD (FIG. 14) were synthesized by incubating 0.6 mCi of Y-90 with DOTA-Bn-NH2 or AABD at 80° C. for 30 min. The radiochemical purity of [^90Y]DOTA-Bn-NH2 and [^90Y]AABD was >95% as analyzed by ITLC (instant thin-layer chromatography). Cell uptake studies were performed with SKOV3 cells transduced with the DOTA CAR, with untransduced SKOV3 cells as a control; excess Y-DOTA-Bn-NH2 (250 nM) was used as a blocking agent.
(§2) Rituxumab-Bn-DOTA-Y was radiolabeled with 1-125 using Pierce Pre-Coated Iodination Tubes. The radiochemical purity of [^125I]Rituximab-Bn-DOTA-Y was >99% based on ITLC (instant thin-layer chromatography). Cell uptake studies with [^125I]Rituximab-Bn-DOTA-Y were performed with SKOV3 cells that were transduced with the DOTA CAR, with untransduced SKOV3 cells as a control. […] This experiment confirmed that Y-DOTA labeled antibodies are capable of binding to cells that express the DOTA CAR, with minimal nonspecific binding.

untransduced SKOV3 cells = experiment: Cell uptake of radiolabeled probes, untransduced control cells; format: cell-based
Method: as §1, §2

O=C(O)CN1CCN(CC(=O)O)CCN(CC(=O)ON2C(=O)CCC2=O)CCN(CC(=O)O)CC1 [DOTA-NHS]
concentration at which the IFNγ effect was saturating (hC8.2.5 DOTA CAR T cells): 100 µM | IFNγ production by hC8.2.5 DOTA CAR T cells (hC8.2.5 DOTA CAR T cells; 16 hours): low levels of IFNγ | effect of free monomeric DOTA on lytic function of Herceptin-NHS-DOTA-Y-CAR T cells (antigen positive cells): blockade of lytic function

Rituximab-Bn-DOTA-Y: Rituximab-Bn-DOTA with chelated yttrium
lysis of CD20+ cells (CD20+ cells): capable of lysing CD20+ cells

Rituximab-Bn-DOTA: Rituximab conjugated to Bn-DOTA
lysis of CD20+ cells (CD20+ cells): specifically lysed | lysis of Ramos cells [1]: able to specifically lyse their respective target cell lines

[^125I]Rituximab-Bn-DOTA-Y: Rituximab-Bn-DOTA-Y radiolabeled with I-125
time of maximum uptake [2]: 60 min | cell uptake ([2]; at 60 min): 65 % input/10^6 cells | cell uptake in untransduced cells (untransduced SKOV3 cells): minimal to no uptake
